Measured values taken from US8987195B2 (priority 2012, dated 2015).
Like-named read-outs stand apart in the source and are kept apart here.

Columns and labels:
[1] = rcm bond, Zhan's catalyst, DCE
HCV genotype 1b replicon = test: HCV replicon assay, genotype 1b replicon EC50; type: cell-based, Hepatitis C virus; details: Hepatitis C virus, read-out: EC50 [gt-1b]
In short: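 Cells harbouring a stable replicon are grown under G418 selection, then plated with test compound in G418-free medium for 24-48 hours. After washing and lysis, RNA or luciferase signal is measured and expressed as percent of DMSO control to give EC50.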

[2] = biological target: HCV NS3/4A protease genotype 1b (Hepatitis C virus genotype 1b, UniProt P26663); test: HCV NS3/4A protease time-resolved fluorescence (TRF) assay, Ki against genotype 1b; type: biochemical
In short: (§1)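 Ki values come from IC50 fits corrected for substrate concentration and KM. The time-resolved fluorescence protease reaction used 25 nM peptide substrate, 2.5 h, room temperature, pH 7.5 HEPES buffer, after 30 min enzyme–inhibitor preincubation.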

[3] = biological target: HCV NS3/4A protease genotype 3a (Hepatitis C virus genotype 3a, UniProt Q81495); test: HCV NS3/4A protease time-resolved fluorescence (TRF) assay, Ki against genotype 3a; type: biochemical
In short: as §1

[4] = biological target: HCV NS3/4A protease A156T mutant (Hepatitis C virus genotype 1b, UniProt P26663, A1182T); test: HCV NS3/4A protease time-resolved fluorescence (TRF) assay, Ki against A156T mutant; type: biochemical
In short: as §1

[5] = IC50 [gt-1b] (nM), NS3/4A genotype 1b, enzyme 0.2 nM, K+ salt
[6] = NS3/4A gt-1b A156T mutant, enzyme 0.4 nM, K+ salt, read-out: IC50 [gt-1b A156T]
[7] = IC50 [gt-1b], NS3/4A protease TRF assay, genotype 1b enzyme 0.2 nM
[8] = NS3/4A protease TRF assay, A156T mutant enzyme 0.4 nM, read-out: IC50 [gt-1b A156T]
[9] = IC50 [gt-1b] (nM), NS3/4A genotype 1b, enzyme 0.2 nM
[10] = HCV replicon, genotype 1b, K+ salt
[11] = IC50 [gt-1b], NS3/4A protease TRF assay, genotype 1b enzyme 0.2 nM, K+ salt
[12] = NS3/4A protease TRF assay, A156T mutant enzyme 0.4 nM, K+ salt, read-out: IC50 [gt-1b A156T]

`CCOC(=O)[C@@]12C[C@H]1C=CCCCCC[C@H](NC(=O)OC(C)(C)C)C(=O)N1C[C@@]3(CCc4c(c(C5CCC5)nc5ccc(OC)cc45)O3)C[C@H]1C(=O)N2` showed a ring closure, yield of all isomers ([1]; from C=CCCCCC[C@H](NC(=O)OC(C)(C)C)C(=O)N1C[C@@]2(CCc3c(c(C4CCC4)nc4ccc(OC)cc34)O2)C[C@H]1C(=O)N[C@]1(C(=O)OCC)C[C@H]1C=C, 4.5 mM, 70.0 °C, 2.2 h) of 72%.

In the case of `Cc1nc2ccc(OC(F)(F)F)cc2c2c1O[C@]1(CC2)C[C@H]2C(=O)N[C@]3(C(=O)NS(=O)(=O)C4(C)CC4)C[C@H]3C=CCCCCC[C@H](NC(=O)OC(C)(C)C)C(=O)N2C1`, the ring closure, yield of all isomers ([1]; from C=CCCCCC[C@H](NC(=O)OC(C)(C)C)C(=O)N1C[C@@]2(CCc3c(c(C)nc4ccc(OC(F)(F)F)cc34)O2)C[C@H]1C(=O)N[C@]1(C(=O)NS(=O)(=O)C2(C)CC2)C[C@H]1C=C, 2.32 mM, 70.0 °C, 6.0 h) is reported as 71%.

In the case of `CCOC(=O)[C@@]12C[C@H]1C=CCCCCC[C@H](NC(=O)OC(C)(C)C)C(=O)N1C[C@@]3(CCc4c(c(C)nc5c(F)cccc45)O3)C[C@H]1C(=O)N2`, the ring closure, yield of all isomers ([1]; from C=CCCCCC[C@H](NC(=O)OC(C)(C)C)C(=O)N1C[C@@]2(CCc3c(c(C)nc4c(F)cccc34)O2)C[C@H]1C(=O)N[C@]1(C(=O)OCC)C[C@H]1C=C, 4.53 mM, 65.0 °C, 1.0 h) is reported as 48%.

`COc1ccc2nc(CO)c3c(c2c1Cl)CC[C@]1(C[C@H]2C(=O)N[C@]4(C(=O)NS(=O)(=O)C5(C)CC5)C[C@H]4C=CCCCCC[C@H](NC(=O)OC(C)(C)C)C(=O)N2C1)O3` gave a ring closure, yield of all isomers ([1]; from C=CCCCCC[C@H](NC(=O)OC(C)(C)C)C(=O)N1C[C@@]2(CCc3c(c(CO)nc4ccc(OC)c(Cl)c34)O2)C[C@H]1C(=O)N[C@]1(C(=O)NS(=O)(=O)C2(C)CC2)C[C@H]1C=C, 1.91 mM, 65.0 °C, 3.0 h) of 25.9%.

With `Cc1nc2ccc(Cl)cc2c2c1O[C@]1(CC2)C[C@H]2C(=O)N[C@]3(C(=O)NS(=O)(=O)C4(C)CC4)C[C@H]3C=CCCCCC[C@H](NC(=O)OC(C)(C)C)C(=O)N2C1` the ring closure, yield of all isomers ([1]; from C=CCCCCC[C@H](NC(=O)OC(C)(C)C)C(=O)N1C[C@@]2(CCc3c(c(C)nc4ccc(Cl)cc34)O2)C[C@H]1C(=O)N[C@]1(C(=O)NS(=O)(=O)C2(C)CC2)C[C@H]1C=C, 2.4 mM, 75.0 °C, 0.5 h) was 71.6%.

`COc1ccc2nc(C)c3c(c2c1)C(F)(F)C[C@]1(C[C@H]2C(=O)N[C@]4(C(=O)NS(=O)(=O)C5(C)CC5)C[C@H]4/C=C\CCCCC[C@H](NC(=O)OCC(C)C)C(=O)N2C1)O3` [Example 266, 2-methylpropyl [(2S,6S,12Z,13aS,14aR,16aS)-1′,1′-difluoro-9′-methoxy-5′-methyl-14a-{[(1-methylcyclopropyl)sulfonyl]carbamoyl}-5,16-dioxo-1,1′,2′,5,6,7,8,9,10,11,13a,14,14a,15,16,16a-hexadecahydrospiro[cyclopropa[e]pyrrolo[1,2-a][1,4]diazacyclopentadecine-2,3′-pyrano[2,3-c]quinolin]-6-yl]carbamate] gave an EC50 (HCV genotype 1b replicon; genotype 1b replicon, K+ salt) of 4.47 nM, an IC50 [2, 5] of 0.014 nM and an IC50 [3] of 2.1 nM. It also gave an IC50 [4, 6] of 0.384 nM.

`CCc1nc2ccc(OC)cc2c2c1O[C@]1(CC2)C[C@H]2C(=O)N[C@]3(C(=O)NS(=O)(=O)C4(C)CC4)C[C@H]3/C=C\CCCCC[C@H](NC(=O)O[C@H](C)C3CC3)C(=O)N2C1` [Example 502, (1R)-1-cyclopropylethyl [(2R,6S,12Z,13aS,14aR,16aS)-5′-ethyl-9′-methoxy-14a-{[(1-methylcyclopropyl)sulfonyl]carbamoyl}-5,16-dioxo-1,1′,2′,5,6,7,8,9,10,11,13a,14,14a,15,16,16a-hexadecahydrospiro[cyclopropa[e]pyrrolo[1,2-a][1,4]diazacyclopentadecine-2,3′-pyrano[2,3-c]quinolin]-6-yl]carbamate] gave an EC50 (HCV genotype 1b replicon; HCV replicon, genotype 1b) of 0.29 nM, an IC50 [2, 7] of 0.004 nM and an IC50 [3] of 0.48 nM. For the same compound, the IC50 [4, 8] was 0.121 nM.

For `COc1ccc2nc(C(F)(F)F)c3c(c2c1)CC[C@]1(C[C@H]2C(=O)N[C@]4(C(=O)NS(=O)(=O)C5(C)CC5)C[C@H]4/C=C\CCCCC[C@H](NC(=O)OC4(C)CCC4)C(=O)N2C1)O3` [Example 451, 1-methylcyclobutyl [(2R,6S,12Z,13aS,14aR,16aS)-9′-methoxy-14a-{[(1-methylcyclopropyl)sulfonyl]carbamoyl}-5,16-dioxo-5′-(trifluoromethyl)-1,1′,2′,5,6,7,8,9,10,11,13a,14,14a,15,16,16a-hexadecahydrospiro[cyclopropa[e]pyrrolo[1,2-a][1,4]diazacyclopentadecine-2,3′-pyrano[2,3-c]quinolin]-6-yl]carbamate], the EC50 (HCV genotype 1b replicon; HCV replicon, genotype 1b) was 1.86 nM, the IC50 [2, 7] was 0.006 nM and the IC50 [3] was 0.504 nM. For the same compound, the IC50 [4, 8] was 0.338 nM.

`Cc1nc2ccc(C(F)(F)F)cc2c2c1O[C@]1(CC2)C[C@H]2C(=O)N[C@]3(C(=O)NS(=O)(=O)C4(C)CC4)C[C@H]3/C=C\CCCCC[C@H](NC(=O)OCC(C)(C)C)C(=O)N2C1` [Example 255, 2,2-dimethylpropyl [(2R,6S,12Z,13aS,14aR,16aS)-5′-methyl-14a-{[(1-methylcyclopropyl)sulfonyl]carbamoyl}-5,16-dioxo-9′-(trifluoromethyl)-1,1′,2′,5,6,7,8,9,10,11,13a,14,14a,15,16,16a-hexadecahydrospiro[cyclopropa[e]pyrrolo[1,2-a][1,4]diazacyclopentadecine-2,3′-pyrano[2,3-c]quinolin]-6-yl]carbamate] showed an EC50 (HCV genotype 1b replicon; genotype 1b replicon) of 50.9 nM, an IC50 [2, 9] of 0.015 nM and an IC50 [3] of 2.86 nM. The IC50 ([4]; NS3/4A gt-1b A156T mutant, enzyme 0.4 nM, read-out: IC50 [gt-1b A156T]) was 0.679 nM.

In the case of `CCc1nc2ccc(OCCCOC)cc2c2c1O[C@]1(CC2)C[C@H]2C(=O)N[C@]3(C(=O)NS(=O)(=O)C4(C)CC4)C[C@H]3/C=C\CCCCC[C@H](NC(=O)OCC(C)C)C(=O)N2C1` [Example 484, 2-methylpropyl [(2R,6S,12Z,13aS,14aR,16aS)-5′-ethyl-9′-(3-methoxypropoxy)-14a-{[(1-methylcyclopropyl)sulfonyl]carbamoyl}-5,16-dioxo-1,1′,2′,5,6,7,8,9,10,11,13a,14,14a,15,16,16a-hexadecahydrospiro[cyclopropa[e]pyrrolo[1,2-a][1,4]diazacyclopentadecine-2,3′-pyrano[2,3-c]quinolin]-6-yl]carbamate], the EC50 (HCV genotype 1b replicon; [10]) is reported as 0.357 nM, the IC50 [2, 11] is reported as 0.003 nM and the IC50 [3] is reported as 0.628 nM. For the same compound, the IC50 [4, 12] was 0.164 nM.

`CC[C@@H](C)OC(=O)N[C@H]1CCCCC/C=C\[C@@H]2C[C@@]2(C(=O)NS(=O)(=O)C2(C)CC2)NC(=O)[C@@H]2C[C@]3(CCc4c(c(C(F)(F)F)nc5ccc(OC)cc45)O3)CN2C1=O` [Example 459, (2R)-butan-2-yl [(2R,6S,12Z,13aS,14aR,16aS)-9′-methoxy-14a-{[(1-methylcyclopropyl)sulfonyl]carbamoyl}-5,16-dioxo-5′-(trifluoromethyl)-1,1′,2′,5,6,7,8,9,10,11,13a,14,14a,15,16,16a-hexadecahydrospiro[cyclopropa[e]pyrrolo[1,2-a][1,4]diazacyclopentadecine-2,3′-pyrano[2,3-c]quinolin]-6-yl]carbamate] showed an EC50 (HCV genotype 1b replicon; [10]) of 4.4 nM, an IC50 [2, 11] of 0.049 nM and an IC50 [3] of 2.31 nM. It also gave an IC50 [4, 12] of 2.65 nM.

Work on `COc1ccc2nc(C(F)(F)F)c3c(c2c1)CC[C@]1(C[C@H]2C(=O)N[C@]4(C(=O)NS(=O)(=O)C5(C)CC5)C[C@H]4/C=C\CCCCC[C@H](NC(=O)OCC(C)C)C(=O)N2C1)O3` [Example 6, Isobutyl ((2R,6S,13aS,14aR,16aS,Z)-9′-methoxy-14a-(((1-methylcyclopropyl)sulfonyl)carbamoyl)-5,16-dioxo-5′-(trifluoromethyl)-1′,2′,3,5,6,7,8,9,10,11,13a,14,14a, 15,16,16a-hexadecahydro-1H-spiro[cyclopropa[e]pyrrolo[1,2-a][1,4]diazacyclopentadecine-2,3′-pyrano[2,3-c]quinolin]-6-yl)carbamate] yielded an EC50 (HCV genotype 1b replicon; genotype 1b replicon) of 1.23 nM, an IC50 [2, 9] of 0.016 nM and an IC50 [3] of 0.53 nM. The IC50 [4] was 0.591 nM.

With `COc1ccc2nc(C)c3c(c2c1)CC[C@]1(C[C@H]2C(=O)N[C@]4(C(=O)NS(=O)(=O)C5(C)CC5)C[C@H]4/C=C\CCCCC[C@H](NC(=O)OC4CCC4)C(=O)N2C1)O3` [Example 199, cyclobutyl [(2R,6S,12Z,13aS,14aR,16aS)-9′-methoxy-5′-methyl-14a-{[(1-methylcyclopropyl)sulfonyl]carbamoyl}-5,16-dioxo-1,1′,2′,5,6,7,8,9,10,11,13a,14,14a,15,16,16a-hexadecahydrospiro[cyclopropa[e]pyrrolo[1,2-a][1,4]diazacyclopentadecine-2,3′-pyrano[2,3-c]quinolin]-6-yl]carbamate] the EC50 (HCV genotype 1b replicon; genotype 1b replicon, K+ salt) was 1 nM, the IC50 [2, 5] was 0.003 nM and the IC50 [3] was 0.287 nM. It also gave an IC50 [4, 6] of 0.0462 nM.
